According to US20250136997A1, “COMPOSITIONS FOR SEQUESTERING ISOAMYL AMINE AND METHODS OF USE THEREFOR” (University of Louisville Research Foundation, Inc., priority 2023, published 2025):

Columns and labels:
[1] = test system: promoter of S100A8; test: SPR of p53 protein and biotinylated oligo with or without IAA; assay type: binding, mouse
[2] = test system: microglial cells; test: FACS analysis of apoptotic bodies (ABs) in supernatants of cultured microglial cells; assay type: cell-based, mouse; conditions: microglial cells isolated from young mice
Experimental: Flow cytometry. Isolated cells were incubated with blocking solution (0.5% BSA/PBS) for 15 minutes at 4° C. For surface staining, cells were stained with various antibodies at room temperature for 1 hour and then washed with PBS. Washed cells were stained for 40 minutes at 4° C. with the appropriate fluorochrome-conjugated antibodies in PBS with 2% FBS. Data were acquired using a BD FACSCalibur flow cytometer (BD Biosciences, San Jose, CA) and analyzed using FlowJo software (Tree Star Inc., Ashland, OR). The following antibodies purchased from Biolegend were used for flow cytometry: anti-CD11b (101208), anti-CD45 (103112) and FITC Annexin V (640945). For the ABs analysis, extracellular vesicles were collected. To recognize the ABs, as described previously, size gates set based on forward scatter (FSC) were applied in combination with Annexin V staining. From these vesicles total ABs were detected using Annexin V staining events.
Isolation of apoptotic bodies. Apoptotic bodies (ABs) were isolated from culture supernatants as previously described. Briefly, cell culture medium was harvested and cells were removed by pelleting at 335×g for 10 minutes. To remove cell-debris, supernatants were centrifuged at 1,000×g for 10 minutes, followed by another centrifugation at 2,000×g for 30 minutes to pellet ABs. Pelleted ABs were resuspended and washed with PBS.

[3] = T-maze spontaneous alternation (TMSA) test; assay type: in vivo, mouse; conditions: IAA to young mice
Experimental: T-maze test. To evaluate the cognitive impairment without requirement of full motor function, modified T-Maze test (Deacon and Rawlins, 2006) was carried out. Mice were gently handled, habituated to the T-Maze apparatus, and subjected to food deprivation. On the forced alternation sample trial (T1), the animals were exposed to the T-maze with one of the arms opened and rewarded with pellet at end of the arm. The opposite arm was blocked by a guillotine door. The mouse was allowed to explore the open arm and consume the reward. Ten consecutive trials were performed, then the mouse was removed. After 30 min, retrieval testing (T2) was performed. The blocked arm was opened and the mouse was placed in the same start position. […] If the mouse entered the same arm as in T1, the mouse was confined for 10 seconds and this response was marked as an “Error”. Each mouse was subjected to 10 consecutive runs. Forced Alternation [%] was defined as the percent of mice first entering the novel arm during T2. […] The three- or four-day intersession interval is used to assess recognition memory performances.

[4] = test system: microglial cells; test: Western blot of cleaved caspase-3 and cleaved PARP in ex vivo cultured microglial cells; assay type: cell-based, mouse
Experimental: Isolation of microglia, neuron, astrocytes, and oligodendrocytes from the brain. Mice were anaesthetized with a mixture of ketamine (16%) and xylazine (3%) by intraperitoneal injection and then sacrificed under basal conditions by transcardial perfusion with perfusion buffer (Ca^2+/Mg^2+ free HBSS containing 0.5 mM EGTA, 10 mM HEPES and 4.2 mM NaHCO3; pH 7.2). The perfused brain was removed and gently mechanically disaggregated with tweezers in dissociation buffer (HBSS containing 10 mM HEPES and 4.2 mM NaHCO3 supplemented with Type I collagenase (0.05%), Dispase II (25 mg/ml), DNase I (2.5 mg/ml), trypsin inhibitor ([…]); pH 7.5) followed by incubation at 37° C. for 1 hour. The tissue homogenate was centrifuged at 1,350×g for 5 minutes at 4° C. For the isolation of microglia, the digestion enzymes in the tissue homogenate were inactivated by addition of PBS/EDTA containing 5% fetal bovine serum (FBS) and the digested brain bits were triturated gently, passed over a 100 µm filter (Fisher Scientific) and centrifuged. […] The pellet of cells was rinsed in PBS. Any contaminating red blood cells (RBC) were lysed using RBC lysis buffer (Sigma) according to the manufacturer's instructions, rinsed twice with PBS and passed through a 40 µm filter (Fisher Scientific). Cells were then stained for CD11b and CD45 for flow cytometry analysis. The astrocytes were isolated from mouse cortices (n=10). The tissue homogenate was centrifuged at 800×g for 10 minutes at 4° C. following digestion with type II collagenase (1 mg/ml) and type I DNase (10 U/ml) in DMEM for 10 minutes. The cells pelleted by centrifugation were plated in a 100 mm culture dish coated with poly-L-ornithine (Sigma). For the isolation of oligodendrocytes, the glial cells above were cultured in specific media containing T3 and T4 (0.5 mM) as well as platelet-derived growth factor (PDGF, 10 ng/ml) to promote the growth of the different cell types. Isolated glial cells were labelled with the following antibodies against surface markers: CD11b (Biolegend, Cat #101206), CD45 (Biolegend, Cat #147710), GFAP (Biolegend, Cat #837508) and MOG (Biorbyt, Cat #orb412341-FITC). Cells positive for CD11b and CD45Med were identified as microglia. Cells positive for GFAP and negative for CD45 and CD11b were identified as astrocytes. Cells sorted with MOG+CD11b− were identified as oligodendrocytes. Neurons were isolated from mouse brain using the Pierce Primary Neuron Isolation Kit (Thermo Scientific, Cat #88280). Briefly, the tissue homogenate from freshly dissected cortexes was suspended in an equal volume of ice cold HBSS (Sigma) and replaced with Neuronal Isolation Enzyme (with papain) in a 37° C. incubator for 30 minutes. After washing with HBSS, the tissue was cultured in a poly-D-lysine coated plate with Neuronal Culture Medium.
Western blotting. Cells were treated as indicated in individual Figure legends and whole cell extracts (WCE) were prepared in the radioimmunoprecipitation assay (RIPA) buffer (Sigma) with addition of protease and phosphatase inhibitors (Roche). Proteins were separated by 10% SDS-PAGE and transferred to polyvinylidene difluoride (PVDF) membranes (Bio-Rad Laboratories, Inc., Hercules, CA). Dual color precision protein MW markers (BioRad) were separated in parallel. Antibodies were purchased as follows: cleaved-caspase-3 (ab214430), cleaved PARP (ab203467) and GAPDH (ab9657, Abcam) from Abcam; S100A8 (47310) and S100a9 (72590) from Cell Signaling; and Ltf (GTX81085) from GeneTex. The secondary antibodies conjugated to Fluors Alex-488 (A32723) or Alex-594 (A11012) were purchased from Invitrogen (Eugene, OR). The bands were visualized on the Odyssey Imager (LiCor Inc, Lincoln, NE).

[5] = added to ex vivo cultured microglial cells from young mice

In the case of `CC(C)CCN` [IAA, isoamylamine], the “p53 binding to promoter of S100A8 (SPR)” value [1] is reported as “p53 binds to promoter of S100A8 in an IAA dependent manner”, the “ABs released into the culture supernatants” value [2] is reported as “increase” and the “deficit of spatial learning in the TMSA (percentage of correct choices)” value ([3]; phage to aged mice) is reported as “induced the deficit”. For the same compound, the “percentage of alternating choices (exploring new arm), TMSA” value ([3]; phage^TSD-27 to aged mice) was “reduced young mice exploring the new path”, the “effect on the microglia (cleaved caspase-3)” value ([4]; S100A8 deficient microglia cells) was “abolished” and the “cleaved caspase-3” value [4, 5] was “increasing”. For the same compound, the “cleaved poly(-ADP-ribose) polymerase (PARP)” value [4, 5] was “increasing”.
